Key:
activated ERK2 [1] = biological target: T1, activated ERK2 (Homo sapiens (Human), UniProt P28482); assay: Activated ERK2 kinase assay, ERK2 New conditions (AlphaScreen, ERKtide phosphorylation); assay type: biochemical; conditions: 0.25 nM ERK2, 200 nM ERKtide peptide, 35 μM ATP, 30 min preincubation
Method in brief: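 Read-out is AlphaScreen with anti-phospho-EGFR (Thr669) antibody after EDTA quench and overnight dark incubation. Reaction: 0.25 nM ERK2, 30 min compound preincubation, then 200 nM ERKtide plus 35 µM ATP for 2–3 h at ambient temperature, pH 7.5. IC50 by four-parameter fit.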

activated ERK2 [2] = biological target: T1, activated ERK2; assay: Activated ERK2 (20 pM) Kinase Assay (AlphaScreen, ERKtide phosphorylation); assay type: biochemical; conditions: 0.02 nM ERK2, 400 nM ERKtide peptide, 35 μM ATP, 30 min preincubation
Method in brief: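 AlphaScreen read-out (anti-phospho-EGFR Thr669 antibody, protein A acceptor/streptavidin donor beads) of ERKtide (400 nM) phosphorylation by 20 pM activated ERK2 at 35 μM ATP.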

T1 sequence (P28482 whole entry): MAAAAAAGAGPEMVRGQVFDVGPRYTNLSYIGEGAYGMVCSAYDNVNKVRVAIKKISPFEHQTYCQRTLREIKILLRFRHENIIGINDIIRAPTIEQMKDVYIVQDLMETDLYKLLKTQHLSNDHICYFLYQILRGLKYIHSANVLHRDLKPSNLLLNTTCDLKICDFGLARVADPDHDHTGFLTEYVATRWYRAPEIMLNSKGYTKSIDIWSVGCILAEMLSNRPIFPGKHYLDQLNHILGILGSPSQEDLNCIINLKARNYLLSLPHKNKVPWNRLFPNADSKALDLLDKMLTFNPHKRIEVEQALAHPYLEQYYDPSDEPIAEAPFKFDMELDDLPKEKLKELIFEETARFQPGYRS

## Cc1nn(C)cc1-c1cnc(N)c(-c2ccc(C(=O)N[C@H](CO)c3cccc(Cl)c3)c(F)c2)n1 [Example 127, (S)-4-(3-amino-6-(1,3-dimethyl-1H-pyrazol-4-yl)pyrazin-2-yl)-N-(1-(3-chlorophenyl)-2-hydroxyethyl)-2-fluorobenzamide]
Activated ERK2 [1]
  IC50: 0.243 nM
Activated ERK2 [2]
  IC50: 0.0604 nM

## CS(=O)(=O)[C@H]1CC[C@@H](c2cnc(N)c(-c3ccc(C(=O)NCc4ccccc4)c(F)c3)n2)CC1 [Example 16, 4-(3-amino-6-((1s,4s)-4-(methylsulfonyl)cyclohexyl)pyrazin-2-yl)-N-benzyl-2-fluorobenzamide]
Activated ERK2 [1]
  IC50: 206 nM
Activated ERK2 [2]
  IC50: 197 nM

## Nc1ncc([C@H]2CC[C@H](N)CC2)nc1-c1ccc(C(=O)N[C@H](CO)c2cccc(Cl)c2)c(F)c1 [Example 191, 4-(3-amino-6-((1r,45)-4-aminocyclohexyl)pyrazin-2-yl)-N—((S)-1-(3-chlorophenyl)-2-hydroxyethyl)-2-fluorobenzamide]
Activated ERK2 [1]
  IC50: 4.53 nM
Activated ERK2 [2]
  IC50: 1.49 nM

## Nc1ncc(C2=CCCCC2)nc1-c1ccc(C(=O)NCc2ccccc2)c(F)c1 [Example 424, 4-(3-amino-6-(cyclohex-1-en-1-yl)pyrazin-2-yl)-N-benzyl-2-fluorobenzamide]
Activated ERK2 [1]
  IC50: 155 nM
Activated ERK2 [2]
  IC50: 113 nM

## C[C@@H](NC(=O)c1ccc(-c2cc([C@H]3CCN(C)C(=O)C3)cnc2N)cc1F)c1ccccc1 [Example 31, 4-(2-amino-5-((S)-1-methyl-2-oxopiperidin-4-yl)pyridin-3-yl)-2-fluoro-N—((R)-1-phenylethyl)benzamide]
Activated ERK2 [1]
  IC50: 74 nM
Activated ERK2 [2]
  IC50: 32 nM

## C[C@@H](NC(=O)c1ccc(-c2nc(C3=CCCCC3)cnc2N)cc1F)c1cc(F)cc(S(C)(=O)=O)c1 [Example 426, (R)-4-(3-amino-6-(cyclohex-1-en-1-yl)pyrazin-2-yl)-2-fluoro-N-(1-(3-fluoro-5-(methylsulfonyl)phenyl)ethyl) benzamide]
Activated ERK2 [1]
  IC50: 1.36 nM
Activated ERK2 [2]
  IC50: 0.585 nM

## Nc1ncc(C2CCCCC2)nc1-c1ccc(C(=O)NCc2ccccc2)c(F)c1 [Example 421, 4-(3-amino-6-cyclo-hexylpyrazin-2-yl)-N-benzyl-2-fluorobenzamide]
Activated ERK2 [1]
  IC50: 12.6 nM
Activated ERK2 [2]
  IC50: 6.38 nM

## Cc1cccc([C@@H](CO)NC(=O)c2ccc(-c3cc(-c4cn(C)nc4C)cnc3N)cc2F)c1 [Example 283, (S)-4-(2-amino-5-(1,3-dimethyl-1H-pyrazol-4-yl)pyridin-3-yl)-2-fluoro-N-(2-hydroxy-1-(m-tolyl)ethyl) benzamide]
Activated ERK2 [1]
  IC50: 0.169 nM
Activated ERK2 [2]
  IC50: 0.0378 nM

## Cc1nn(C)cc1-c1cnc(N)c(-c2ccc(C(=O)N[C@H](CO)c3cccc(Cl)c3)c(F)c2)c1 [Example 152, (S)-4-(2-amino-5-(1,3-dimethyl-1H-pyrazol-4-yl)pyridin-3-yl)-N-(1-(3-chlorophenyl)-2-hydroxyethyl)-2-fluorobenzamide]
Activated ERK2 [1]
  IC50: 0.145 nM
Activated ERK2 [2]
  IC50: 0.041 nM

## Nc1ncc(C2CCOCC2)nc1-c1ccc(C(=O)N[C@H](CO)c2cccc(F)c2)c(F)c1 [Example 279, (S)-4-(3-amino-6-(tetrahydro-2H-pyran-4-yl)pyrazin-2-yl)-2-fluoro-N-(1-(3-fluorophenyl)-2-hydroxyethyl) benzamide]
Activated ERK2 [1]
  IC50: 0.518 nM
Activated ERK2 [2]
  IC50: 0.429 nM

## Cn1cc(-c2cnc(N)c(-c3ccc(C(=O)N[C@H](CO)c4cccc(Cl)c4)c(F)c3)c2)cn1 [Example 263, (S)-4-(2-amino-5-(1-methyl-1H-pyrazol-4-yl)pyridin-3-yl)-N-(1-(3-chlorophenyl)-2-hydroxyethyl)-2-fluorobenzamide]
Activated ERK2 [1]
  IC50: 0.191 nM
Activated ERK2 [2]
  IC50: 0.0923 nM

## CCn1cc(-c2cnc(N)c(-c3ccc(C(=O)N[C@H](CO)c4cccc(Cl)c4)c(F)c3)c2)cn1 [Example 297, (S)-4-(2-amino-5-(1-ethyl-1H-pyrazol-4-yl)pyridin-3-yl)-N-(1-(3-chlorophenyl)-2-hydroxyethyl)-2-fluorobenzamide]
Activated ERK2 [1]
  IC50: 0.153 nM
Activated ERK2 [2]
  IC50: 0.0715 nM

## Nc1ncc(C2CCNC(=O)C2)cc1-c1ccc(C(=O)N[C@H](CO)c2cccc(Cl)c2)c(F)c1 (mixture of isomers) [Example 121, 4-(2-amino-5-(2-oxopiperidin-4-yl)pyridin-3-yl)-N-((S)-1-(3-chlorophenyl)-2-hydroxyethyl)-2-fluorobenzamide]
Activated ERK2 [1]
  IC50: 0.34 nM
Activated ERK2 [2]
  IC50: 0.217 nM

## Nc1ncc([C@H]2CC[C@@H](N)CC2)nc1-c1ccc(C(=O)N[C@H](CO)c2cccc(Cl)c2)c(F)c1 [Example 192, 4-(3-amino-6-((1s,4R)-4-aminocyclohexyl)pyrazin-2-yl)-N—((S)-1-(3-chlorophenyl)-2-hydroxyethyl)-2-fluorobenzamide]
Activated ERK2 [1]
  IC50: 8.04 nM
Activated ERK2 [2]
  IC50: 4.93 nM

## Cc1c(-c2cnc(N)c(-c3ccc(C(=O)N[C@H](CO)c4cccc(Cl)c4)c(F)c3)c2)cnn1C [Example 151, (S)-4-(2-amino-5-(1,5-dimethyl-1H-pyrazol-4-yl)pyridin-3-yl)-N-(1-(3-chlorophenyl)-2-hydroxyethyl)-2-fluorobenzamide]
Activated ERK2 [1]
  IC50: 0.115 nM
Activated ERK2 [2]
  IC50: 0.0233 nM

## Cn1nncc1-c1cnc(N)c(-c2ccc(C(=O)N[C@H](CO)c3cccc(Cl)c3)c(F)c2)c1 [Example 300, (S)-4-(2-amino-5-(1-methyl-1H-1,2,3-triazol-5-yl)pyridin-3-yl)-N-(1-(3-chlorophenyl)-2-hydroxyethyl)-2-fluorobenzamide]
Activated ERK2 [1]
  IC50: 0.228 nM
Activated ERK2 [2]
  IC50: 0.0655 nM

## Nc1ncc(C2=CCOCC2)nc1-c1ccc(C(=O)N[C@H](CO)c2cccc(Cl)c2)c(F)c1 [Example 428, (S)-4-(3-amino-6-(3,6-dihydro-2H-pyran-4-yl)pyrazin-2-yl)-N-(1-(3-chlorophenyl)-2-hydroxyethyl)-2-fluorobenzamide]
Activated ERK2 [1]
  IC50: 0.219 nM
Activated ERK2 [2]
  IC50: 0.0759 nM

## CO[C@H]1CC[C@H](c2cnc(N)c(-c3ccc(C(=O)NCc4ccccc4)c(F)c3)n2)CC1 [Example 116, 4-(3-amino-6-((1r,4r)-4-methoxycyclohexyl)pyrazin-2-yl)-N-benzyl-2-fluorobenzamide]
Activated ERK2 [1]
  IC50: 18.9 nM
Activated ERK2 [2]
  IC50: 9.42 nM

## Cc1cccc([C@@H](CO)NC(=O)c2ccc(-c3nc(C4CCOCC4)cnc3N)cc2F)c1 [Example 309, (S)-4-(3-amino-6-(tetrahydro-2H-pyran-4-yl)pyrazin-2-yl)-2-fluoro-N-(2-hydroxy-1-(m-tolyl)ethyl) benzamide]
Activated ERK2 [1]
  IC50: 0.104 nM
Activated ERK2 [2]
  IC50: 0.0263 nM

## COCCn1cc(-c2cnc(N)c(-c3ccc(C(=O)N[C@H](CO)c4cccc(Cl)c4)c(F)c3)c2)cn1 [Example 172, (S)-4-(2-amino-5-(1-(2-methoxyethyl)-1H-pyrazol-4-yl)pyridin-3-yl)-N-(1-(3-chlorophenyl)-2-hydroxyethyl)-2-fluorobenzamide]
Activated ERK2 [1]
  IC50: 0.158 nM
Activated ERK2 [2]
  IC50: 0.0785 nM

## C[C@@H](NC(=O)c1ccc(-c2cc([C@@H]3CCN(C)C(=O)C3)cnc2N)cc1F)c1ccccc1 [Example 30, 4-(2-amino-5-((R)-1-methyl-2-oxopiperidin-4-yl)pyridin-3-yl)-2-fluoro-N—((R)-1-phenylethyl)benzamide]
Activated ERK2 [1]
  IC50: 69.5 nM
Activated ERK2 [2]
  IC50: 22.5 nM

## C[C@@H](NC(=O)c1ccc(-c2cc(C3CCNC(=O)C3)cnc2N)cc1F)c1cccc(Cl)c1 (mixture of isomers) [Example 120, 4-(2-amino-5-(2-oxopiperidin-4-yl)pyridin-3-yl)-N-((R)-1-(3-chlorophenyl)ethyl)-2-fluorobenzamide]
Activated ERK2 [1]
  IC50: 1.35 nM
Activated ERK2 [2]
  IC50: 0.536 nM

## Nc1ncc(C2=CCOCC2)nc1-c1ccc(C(=O)NCc2ccccc2)c(F)c1 [Example 427, 4-(3-amino-6-(3,6-dihydro-2H-pyran-4-yl)pyrazin-2-yl)-N-benzyl-2-fluorobenzamide]
Activated ERK2 [1]
  IC50: 16.7 nM
Activated ERK2 [2]
  IC50: 6.41 nM

## C[C@@H](NC(=O)c1ccc(-c2cc([C@H]3CCC(=O)N(C)C3)cnc2N)cc1F)c1cccc(Cl)c1 [Example 39, 4-(2-amino-5-((R)-1-methyl-6-oxopiperidin-3-yl)pyridin-3-yl)-N—((R)-1-(3-chlorophenyl)ethyl)-2-fluorobenzamide]
Activated ERK2 [1]
  IC50: 2.48 nM
Activated ERK2 [2]
  IC50: 1.3 nM

## COCC(=O)N[C@H]1CC[C@H](c2cnc(N)c(-c3ccc(C(=O)N[C@H](CO)c4cccc(Cl)c4)c(F)c3)n2)CC1 [Example 430, 4-(3-amino-6-((1r,4S)-4-(2-methoxy-acetamido)cyclohexyl)pyrazin-2-yl)-N-((S)-1-(3-chlorophenyl)-2-hydroxyethyl)-2-fluorobenzamide]
Activated ERK2 [1]
  IC50: 0.787 nM
Activated ERK2 [2]
  IC50: 0.343 nM

## C[C@@H](NC(=O)c1ccc(-c2cc([C@@H]3CCC(=O)N(C)C3)cnc2N)cc1F)c1cccc(Cl)c1 [Example 40, 4-(2-amino-5-((S)-1-methyl-6-oxopiperidin-3-yl)pyridin-3-yl)-N—((R)-1-(3-chlorophenyl)ethyl)-2-fluorobenzamide]
Activated ERK2 [1]
  IC50: 2.46 nM
Activated ERK2 [2]
  IC50: 1.26 nM

## C[C@@H](NC(=O)c1ccc(-c2nc(C3CCCCC3)cnc2N)cc1F)c1cc(F)cc(S(C)(=O)=O)c1 [Example 423, (R)-4-(3-amino-6-cyclo-hexylpyrazin-2-yl)-2-fluoro-N-(1-(3-fluoro-5-(methylsulfonyl)phenyl)ethyl) benzamide]
Activated ERK2 [1]
  IC50: 0.147 nM
Activated ERK2 [2]
  IC50: 0.0614 nM

## Nc1ncc(C2=CCCCC2)nc1-c1ccc(C(=O)N[C@H](CO)c2cccc(Cl)c2)c(F)c1 [Example 425, (S)-4-(3-amino-6-(cyclohex-1-en-1-yl)pyrazin-2-yl)-N-(1-(3-chlorophenyl)-2-hydroxyethyl)-2-fluorobenzamide]
Activated ERK2 [1]
  IC50: 0.907 nM
Activated ERK2 [2]
  IC50: 0.359 nM

## CN1CC[C@H](c2cnc(N)c(-c3ccc(C(=O)N[C@H](CO)c4cccc(Cl)c4)c(F)c3)c2)CC1=O [Example 28, 4-(2-amino-5-((S)-1-methyl-2-oxopiperidin-4-yl)pyridin-3-yl)-N—((S)-1-(3-chlorophenyl)-2-hydroxyethyl)-2-fluorobenzamide]
Activated ERK2 [1]
  IC50: 2.55 nM
Activated ERK2 [2]
  IC50: 1.2 nM

— patent US9242996B2 (Novartis AG, priority 2013, dated 2016)
